Legend:
RXR α = molecular target: T1, RXR α (Homo sapiens, UniProt P19793); experiment: RXR α binding, Ki from IC50 by Cheng-Prussof equation using tritiated LGD1069; conditions: determined from IC50 values by the Cheng-Prussof equation using tritiated LGD1069; read-out: Bind RXR α Ki
T1 sequence (P19793 1-462): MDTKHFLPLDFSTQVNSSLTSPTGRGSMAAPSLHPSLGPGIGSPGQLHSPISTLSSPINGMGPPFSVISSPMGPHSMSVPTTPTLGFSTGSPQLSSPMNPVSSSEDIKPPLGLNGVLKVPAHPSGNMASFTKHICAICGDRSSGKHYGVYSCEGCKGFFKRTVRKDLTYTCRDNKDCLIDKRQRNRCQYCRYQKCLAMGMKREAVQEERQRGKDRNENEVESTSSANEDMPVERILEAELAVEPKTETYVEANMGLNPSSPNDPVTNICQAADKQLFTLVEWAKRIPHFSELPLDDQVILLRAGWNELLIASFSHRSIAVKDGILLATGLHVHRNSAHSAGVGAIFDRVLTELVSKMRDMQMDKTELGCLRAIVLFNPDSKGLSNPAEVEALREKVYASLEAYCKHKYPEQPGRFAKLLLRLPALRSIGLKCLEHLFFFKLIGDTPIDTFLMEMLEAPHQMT

[1] = test system: transgenic mice carrying the human apo A-I gene; experiment: Mice transgenic for the human apolipoprotein A-I gene: HDL cholesterol and triglycerides; assay type: in vivo; conditions: transgenic mouse model; Table 1
Excerpt: Mice transgenic for the human apolipoprotein A-I gene (obtained from Jackson Laboratory) were used to evaluate PPARα mediated effects on high density lipoprotein (HDL) cholesterol. The mice were handled as described above for db/db mice, except that they were fed Purina 5001.
When administered to transgenic mice carrying the human apo A-I gene, compounds of the invention are expected to increase HDL cholesterol. […] This effect is consistent with activation of PPARα and, in fact, in vivo these compounds synergize with the weak PPARα agonist fenofibrate.

RXR:PPARγ = molecular target: T2, RXR:PPARγ (Homo sapiens, UniProt P19793); experiment: RXR:PPARγ synergy with BRL49653 in CV-1 cells; assay type: cell-based; conditions: maximal response in presence of 100 nM BRL49653 (RXR:PPARγ) relative to maximal response of BRL49653 alone
T2 construct: host or cells: CV-1
T2 sequence (P19793 1-462): T1 sequence (P19793 1-462)
T2 sequence (P37231 1-505 partner): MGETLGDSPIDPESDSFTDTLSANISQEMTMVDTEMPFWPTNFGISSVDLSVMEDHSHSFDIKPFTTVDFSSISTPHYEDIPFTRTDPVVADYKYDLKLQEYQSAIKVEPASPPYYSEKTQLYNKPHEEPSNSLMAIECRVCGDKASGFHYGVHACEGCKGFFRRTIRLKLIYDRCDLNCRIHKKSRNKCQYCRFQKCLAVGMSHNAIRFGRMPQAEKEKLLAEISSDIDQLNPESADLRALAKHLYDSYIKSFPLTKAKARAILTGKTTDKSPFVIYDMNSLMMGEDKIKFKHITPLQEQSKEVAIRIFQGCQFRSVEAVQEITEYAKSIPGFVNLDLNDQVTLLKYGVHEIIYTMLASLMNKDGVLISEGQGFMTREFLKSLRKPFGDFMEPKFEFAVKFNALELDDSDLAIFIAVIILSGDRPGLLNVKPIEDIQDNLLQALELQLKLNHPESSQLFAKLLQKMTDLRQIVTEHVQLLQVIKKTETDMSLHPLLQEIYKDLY

RXR:RAR = molecular target: T3, RXR:RAR (Homo sapiens, UniProt P19793); experiment: RXR:RAR agonist efficacy in CV-1 cells; assay type: cell-based; conditions: for RXR:RAR CV-1 (%) Ag.: maximal response relative to maximal response of ATRA; for activation of RXR:RAR heterodimers: statement on Table 1
T3 construct: host or cells: CV-1
T3 sequence (P19793 1-462): T1 sequence (P19793 1-462)
T3 sequence (P10276 1-462 partner): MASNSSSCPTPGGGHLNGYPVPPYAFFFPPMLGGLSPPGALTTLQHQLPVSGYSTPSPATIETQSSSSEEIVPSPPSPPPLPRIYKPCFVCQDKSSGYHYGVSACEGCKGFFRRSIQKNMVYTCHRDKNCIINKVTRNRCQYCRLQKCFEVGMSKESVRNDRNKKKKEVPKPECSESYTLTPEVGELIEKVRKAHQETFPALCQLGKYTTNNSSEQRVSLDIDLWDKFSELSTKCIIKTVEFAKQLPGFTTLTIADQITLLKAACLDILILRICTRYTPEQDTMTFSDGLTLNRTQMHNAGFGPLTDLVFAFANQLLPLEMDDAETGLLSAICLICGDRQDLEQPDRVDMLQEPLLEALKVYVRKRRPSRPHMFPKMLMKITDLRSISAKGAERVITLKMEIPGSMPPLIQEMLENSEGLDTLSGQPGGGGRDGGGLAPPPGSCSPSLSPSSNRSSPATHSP

db/db mouse = db/db mouse plasma glucose and triglycerides, oral gavage; assay type: in vivo; conditions: for db/db mouse Glu. (D 7): plasma glucose as a % correction relative to lean values on day 7 of treatment with 30 mg/kg/day; for db/db mouse Trigs. (D 3): plasma triglycerides as a % of control values on day 3 of treatment with 30 mg/kg/day
RXR:RXR = molecular target: T4, RXR:RXR (Homo sapiens, UniProt P19793); experiment: RXR:RXR agonist/antagonist efficacy in CV-1 cells; assay type: cell-based; conditions: for RXR:RXR CV-1 (%) Antag: maximal repression (100%) in the presence of 32 nM LGD1069; for RXR:RXR CV-1 (%) Ag: maximal response relative to maximal response of ATRA
T4 construct: host or cells: CV-1
T4 sequence (P19793 1-462): T1 sequence (P19793 1-462)

rodent models of NIDDM = experiment: Rodent models of NIDDM, effects of full RXR homodimer agonists
Experimental: All animal experiments were conducted in a United States Department of Agriculture registered facility in accordance with NIH guidelines for the care and use of laboratory animals. Mice (obtained from Jackson Laboratory), ZDF rats (obtained from Genetic Models Inc.) and fa/fa rats (obtained from either Charles River, or Harlan) were maintained on 12-hour light/dark cycle. Mice (age 28-42 days) were caged in groups of 5-6. Rats (age 7 weeks) were housed individually. […] Compounds were administered at the specified doses by oral gavage on the morning of each day of any experiment. Blood samples were obtained 3 hours after dosing from fed animals under anesthesia and collected into heparinized capillary tubes from the tail vein.

SMILES | Ki (RXR α) [nM] | triglycerides [1] | PPARγ CV-1 (%) Synergy (RXR:PPARγ) [%] | RXR:RAR CV-1 (%) Ag. (RXR:RAR) [%] | activation of RXR:RAR heterodimers (RXR:RAR) | db/db mouse Glu. (D 7) (db/db mouse) [%] | db/db mouse Trigs. (D 3) (db/db mouse) [%] | RXR:RXR CV-1 (%) Antag (RXR:RXR) [%] | RXR:RXR CV-1 (%) Ag (RXR:RXR) [%] | melting point [°C] | other results
CCOc1c(-c2cccc3cc(/C(C)=C/C(=O)O)oc23)cc(C(C)C)cc1C(C)C [Ex. 5, 3-[7-(2-Ethoxy-3,5-diisopropylphenyl)-benzo[b]furan-2-yl]-but-2-enoic acid] | 22 | do not raise triglycerides | 140 | 3 | do not activate RXR:RAR heterodimers | 17 | 104 | 10 | 33 |  | 
C/C(=C\C(=O)O)c1cc2c(-c3cc(C(C)(C)C)cc(C(C)(C)C)c3OCC(F)F)cccc2s1 [Ex. 14, 3-{4-[2-(2,2-Difluoroethoxy)-3,5-di-tert-butylphenyl]-benzo[b]thien-2-yl}-but-2-enoic acid] | 12 | do not raise triglycerides | 67 | 2 | do not activate RXR:RAR heterodimers | 35 | 139 | 79 | 1 |  | 
CCCOc1c(-c2cccc3sc(/C(C)=C/C(=O)O)cc23)cc(C(C)C)cc1C(C)C [Ex. 15] | 14 | do not raise triglycerides | 109 | 6 | do not activate RXR:RAR heterodimers | 20 | 98 | 81 | 4 |  | 
CCCCOc1c(-c2c(F)ccc3sc(/C(C)=C/C(=O)O)cc23)cc(C(C)C)cc1C(C)C [Ex. 18, (E)-3-[4-(2-n-Butoxy-3,5-di-iso-propylphenyl)-5-fluorobenzo[b]thien-2-yl]-but-2-enoic acid] | 54 | do not raise triglycerides | 40 | 4 | do not activate RXR:RAR heterodimers | 38 | 105 | 86 | 1 |  | 
CCCCOc1c(-c2nccc3ccc(/C(C)=C/C(=O)O)cc23)cc(C(C)C)cc1C(C)C [Example 53, 3-[1-(2-Butoxy-3,5-diisopropyl-phenyl)-isoquinolin-7-yl]-but-2(E)-enoic acid] |  |  |  |  |  |  |  |  |  | 149.8 | 
CCCCOc1c(-c2ccnc3ccc(/C(C)=C/C(=O)O)cc23)cc(C(C)C)cc1C(C)C [Example 54, 3-[4-(2-Butoxy-3,5-diisopropyl-phenyl)quinolin-6-yl]-but-2(E)-enoic acid] |  |  |  |  |  |  |  |  |  | 195.3 | 
CCCOc1c(-c2c[nH]c3ccc(/C(C)=C/C(=O)O)cc23)cc(C(C)(C)C)cc1C(C)(C)C [Example 63, 3-[3-(3,5-Di-tert-butyl-2-propoxy-phenyl)-1H-indol-5-yl]-but-2-enoic acid] |  |  |  |  |  |  |  |  |  | 105 to 115 | 
C/C(=C\C(=O)O)c1ccc2[nH]cc(-c3cc(C(C)(C)C)cc(C(C)(C)C)c3OCC(F)F)c2c1 [Example 64, 3-{3-[3,5-Di-tert-butyl-2-(2,2-difluro-ethoxy)-phenyl]-1H-indol-5-yl}-but-2-enoic acid] |  |  |  |  |  |  |  |  |  | 135 to 145 | 
C/C(=C\C(=O)O)c1ccc2[nH]cc(-c3cc(C(C)(C)C)cc(C(C)(C)C)c3OCC(F)(F)F)c2c1 [Example 65, 3-{3-[3,5-Di-tert-butyl-2-(2,2,2-trifluoro-ethoxy)-phenyl]-1H-indol-5-yl}-but-2-enoic acid] |  |  |  |  |  |  |  |  |  | 146 to 153 | 
Cc1cc2c(cc1C1(c3ccc(C(=O)O)cn3)CC1)C(C)(C)CCC2(C)C [LG100268] |  | raises triglycerides |  |  |  | 73 | 195 |  |  |  | blood glucose levels (rodent models of NIDDM): lower blood glucose levels; thyroid hormone axis (rodent models of NIDDM): suppress the thyroid hormone axis; triglycerides (rodent models of NIDDM): raise triglycerides
CN(C)C(=N)N=C(N)N [metformin, reference compound] |  |  |  |  |  |  |  |  |  |  | plasma glucose (db/db mouse; 7 week old db/db mice, 300 mg/kg by daily oral gavage, maximum effect after first week, efficacy decreases over 3 subsequent weeks): lowers plasma glucose

— patent publication US7348359B2, “Retinoid X receptor modulators” (Eli Lilly and Company, priority 2001, dated 2008)
